# Bridge positions count the residues as written; N and C are the ends. Square brackets hold non-standard residues; d marks the D form. Peptide text beside a SMILES is read from it. ξ: configuration not given here. Gly(N-CH2CH2C6H4-4Cl) = O=C(O)CNCCc1ccc(Cl)cc1; Gly(N-piperonyl) = O=C(O)CNCc1ccc2c(c1)OCO2; Nrpe = C[C@@H](NCC(=O)O)c1ccccc1; NFurfurylGly = O=C(O)CNCc1ccco1; ξE = NC(CCC(=O)O)C(=O)O; Nleu = CC(C)CNCC(=O)O; Nlys = NCCCCNCC(=O)O; Nme = COCCNCC(=O)O
# What was measured:
# [1] = target: pemphigus vulgaris autoantibody (Dsg3); assay: Solution binding to pemphigus vulgaris autoantibody; conditions: pemphigus vulgaris autoantibody to the Dsg autoantigen; read-out: binding affinity in solution
# [2] = tested on: CD4+ T cells from MBP Ac1-11 TCR transgenic mice; assay: Binding of quantum dot-labeled T cells to peptoid resynthesized on beads; conditions: red quantum dot-labeled
# Description: To determine whether AG12A was binding to the autoreactive TCR, the inventors took advantage of the existence of transgenic mice, in which the vast majority of CD4+ T cells express the MBP Ac1-11 specific TCR (Vα2.3/Vβ8.2 TCR) (Goveman et al., 1993). CD4+ T cells were isolated from these mice and tested for binding to AG12A. This was done in several ways. First, AG12A was resynthesized on beads, as was a control peptoid not selected as a T cell ligand. The beads were then incubated with red quantum dot-labeled T cells.
# wild-type CD4+ T cells = assay: as above; design: species or system mice
# [3] = tested on: MBP Ac1-11 specific T cells (Vα2.3/Vβ8.2 TCR transgenic); assay: DOPA chemical cross-linking, streptavidin staining, mean fluorescence intensity; design: species or system mice; conditions: biotin-labeled DOPA-peptoid, periodate cross-linking, CD4+/streptavidin+ cells; read-out: Kr, of binding to MBP Ac1-11 specific T cells
# B cells = assay: B cell proliferation; format: cell-based
# [4] = tested on: Myelin Oligodendrocyte Glycoprotein (MOG) 35-55 specific TCR transgenic T cells; assay: Antigen-stimulated T cell proliferation, CFSE dilution by flow cytometry; format: cell-based
SMILES,Kd [1] [µM],binding of T cells to peptoid displayed on beads [2],binding of T cells to peptoid displayed on beads (wild-type CD4+ T cells),Kd [3] [µM],inhibition of proliferation of B cells (B cells),inhibition of antigen-stimulated proliferation of MOG 35-55 specific TCR transgenic T cells [4]
COCCN1CC(=O)N(CCCCN)CC(=O)N(Cc2ccc3c(c2)OCO3)CC(=O)N(CCc2ccc(Cl)cc2)CC(=O)NC(C(N)=O)CCC1=O (stereo not drawn) [compound 1a] ([Nme][Nlys][Gly(N-piperonyl)][Gly(N-CH2CH2C6H4-4Cl)][ξE]-NH2; lactam N-5),~10,,,,,
CC(C)CNCC(=O)N(CCCCN)CC(=O)N(CC(=O)N(CC(=O)N(CCCCN)CC(=O)N(CC(=O)N(CCCCN)CC(=O)N(CCCCN)CC(N)=O)CC(C)C)[C@H](C)c1ccccc1)Cc1ccco1 [AG12A] (H-[Nleu][Nlys][NFurfurylGly][Nrpe][Nlys][Nleu][Nlys][Nlys]-NH2; C-terminus assumed),,bound to AG12A displayed on beads,did not,~40,nor did AG12A inhibit proliferation of B cells,did not inhibit

# — patent US9458199B2, “Antigen surrogates in autoimmune disease” (OPKO Pharmaceuticals, LLC, priority 2011, dated 2016)
